Where two headings read alike, the source gives them in different places.
Legend:
[1] = system: Escherichia coli ATCC35218; experiment: microbe, parasite or virus in culture; type: cell-based; settings: ATCC35218, read-out: MIC Ec
Description: (§1) The minimum inhibitory concentration (MIC) of the synthesized compounds was initially determined against three microbial indicator strains (Escherichia coli ATCC35218, […] ATCC33592, Septoria tritici MUCL45408). […]
(§2) 2. Microbial and parasitological studies
(§3) The minimum inhibitory concentration (MIC) of the synthesized compounds was determined against three microbial indicator strains (E. coli ATCC35218, S. aureus ATCC33592 and S. tritici MUCL45408) as previously described.1,2 All samples were dissolved in DMSO and tested in triplicate. Briefly, a pre-culture of E. coli and S. aureus was prepared by incubating the strains in cation adjusted Mueller Hinton 2 broth (Becton Dickinson, Sparks, NV, USA) at 37°C and 180 rpm overnight. The cell density of adjusted to 5 × 10^5 cells/mL before assays were incubated at 37 °C, 180 rpm and 85% rH. Three distinct dilution series of standard antibiotics (gentamicin, rifampicin, […]
(§4) medium without test compound or positive control was used as negative control.
(§5) Medium background was averaged from 5 replicates. The turbidity of each well was […]

[2] = system: S. aureus ATCC33592; experiment: microbe, parasite or virus in culture; type: cell-based; settings: Staphylococcus aureus, ATCC33592, read-out: MIC Sa
Description: as §1, §2, §3, §4, §5

[3] = system: Septoria tritici MUCL45408; experiment: Minimum inhibitory concentration (MIC), S. tritici (ATP quantification); type: cell-based; settings: Zymoseptoria tritici, read-out: MIC St
Description: as §1, §2
The minimum inhibitory concentration (MIC) of the synthesized compounds was determined against three microbial indicator strains (E. coli ATCC35218, S. aureus ATCC33592 and S. tritici MUCL45408) as previously described.1,2 All samples were dissolved in DMSO and tested in triplicate. Briefly, a pre-culture of E. coli and S. aureus was prepared by incubating the strains in cation adjusted Mueller Hinton 2 broth (Becton Dickinson, Sparks, NV, USA) at 37°C and 180 rpm overnight. The cell density of adjusted to 5 × 10^5 cells/mL before assays were incubated at 37 °C, 180 rpm and 85% rH. Three distinct dilution series of standard antibiotics (gentamicin, rifampicin, and tetracycline) were used as positive controls on each assay plate. Inoculated medium without test compound or positive control was used as negative control.
Medium background was averaged from 5 replicates. The turbidity of each well was measured with a microplate spectrophotometer at 600 nm (LUMIstar® Omega, BMG Labtech) and growth inhibition was calculated relative to the absorption of the controls. For S. tritici MUCL45408 inoculated at a density of 1 × 10^5 cells/mL in potato […]
dextrose medium. Septoria assay plates were incubated for 4 days at 25 °C, 180 rpm and 85% rH. Tebuconazole, amphotericin B, and nystatin were used as positive controls. Cell viability was evaluated via ATP quantification (BacTiter-Glo™, Promega GmbH, Walldorf, Germany) according to the manufacturer’s instructions. […]

[4] = system: C. elegans DC19; experiment: whole plant or invertebrate; type: cell-based, Caenorhabditis elegans; settings: Caenorhabditis elegans, 48 h, read-out: MMIC DC19
Source text: (§6) The cuticle of C. elegans strain DC19 is known to be more permeable for small molecules compared to the wildtype N2.[30] DC19 is thereby considered an informative drug-sensitive test organism. In our assays, we determined the minimum mobility inhibitory concentration (MMIC) as a proxy for anthelmintic activity. […] In contrast, MMICs of some small molecule anthelmintics such as albendazole, mebendazole or PF-1022A were lower for DC19 (Fig. S1 ^†). […]
(§7) 2.2 In vitro tests against Caenorhabditis Elegans
(§8) The minimal motility inhibitory concentration (MMIC) of compounds 1-22 against C. elegans was determined as described before.3 Both strains, C. elegans N2 and DC19 were treated identically. Briefly, pre-cultures of C.elegans were kept on NGM agar plates infused with auxotrophic E.coli OP50 as food source.4 After 4 days the plates contained sufficient gravid worms, respectively. Worms were washed from the plates with M9 buffer using wide bore pipette tips. Egg preparation was carried out by treating the harvested worms with an alkaline hypochlorite solution (5 M NaOH + 5 % NaOCl 1:2) in polypropylene tubes. Larvae and adult […]
(§9) We carried out 3 washing steps (M9 buffer) to remove carry-over hypochlorite solution. Subsequently, the eggs were incubated overnight in NGM broth on a rotator to yield synchronized hatched L1/L2 larvae. The larvae solution was adjusted to 100 worms/mL and supplemented with cholesterol (5 µg/mL), carbenicillin (25 µg/mL) and E.coli OP50 (0.5%). This assay solution was distributed into 96 well plates and incubated with a dilution series of compounds 1-22 (64-0.5 µg/mL). An additional eight-point dilution series of ivermecin (40 – 0.3 ng/mL) was used as positive control on each assay plate. Solvent background was controlled by supplementation of pure DMSO without any compound. Assays were incubated for 2 days at room temperature. Finally, a cell imaging multimode reader (Cytation™ 5) was used to record short videos (1.5 seconds) of each individual test well. The videos were used to evaluate the worm motility.

[5] = system: C. elegans N2; experiment: whole plant or invertebrate; type: cell-based, Caenorhabditis elegans; settings: Caenorhabditis elegans, 48 h, read-out: MMIC N2
Source text: as §6, §7, §8, §9

[6] = system: C. elegans strains N2 and DC19; experiment: MMIC against C. elegans, strains N2 and DC19 reported together or strain not stated; type: cell-based; settings: Caenorhabditis elegans, 48 h, read-out: MMIC N2 and DC19, C. elegans
Source text: as §6, §7, §8, §9

[7] = system: MDCK II cells; experiment: In vitro cytotoxicity, CellTiter-Glo, MDCK II cells; settings: 100 μM, 48 h; cell viability less than 80% relative to DMSO control = cytotoxic
[8] = 96 h, S. tritici MUCL45408, 4 days

SMILES	MIC [1] [µg/mL]	MIC [2] [µg/mL]	MIC ([3]; MUCL45408, 96 h) [µg/mL]	minimal effective concentration [4] [µg/mL]	minimal effective concentration [5] [µg/mL]	minimal effective concentration [6] [µg/mL]	MDCKII cytotoxicity [7]	MIC [3, 8] [µg/mL]	minimal effective concentration ([4]; C. elegans DC19, 2 days) [µg/mL]	minimal effective concentration ([5]; C. elegans N2, 2 days) [µg/mL]
CC1(C)CC(Cl)CN(CCN2CC(Cl)CC(C)(C)C2)C1 (stereo not shown) [Compound 15]	> 64	> 64	> 64	> 64	> 64	≥ 64	+ (“+” (toxic))			
CCCCN1CC(Cl)CC2(CC2)C1 (stereo not shown) [Compound 17]	> 64	> 64					− (“−” (not toxic))	> 64	> 64	> 64
CC1(C)CC(Cl)CN(Cc2ccccc2)C1 (stereo not shown) [Compound 18]	> 64	> 64	> 64	32	> 64		+ (“+” (toxic))			
Cl[C@H]1CCCN(Cc2ccccc2)C1 [Compound 19]	> 64	> 64					− (“−” (not toxic))	> 64	> 64	> 64
Cl[C@@H]1CCCN(Cc2ccccc2)C1 [Compound 20]	> 64	> 64					− (“−” (not toxic))	> 64	> 64	> 64
COc1cc(CN2CC(O)CC(C)(C)C2)cc(CN2CC(O)CC(C)(C)C2)c1 (stereo not shown) [Compound 22]	> 64	> 64					− (“−” (not toxic))	> 64	> 64	> 64

Source: publication PMC11718441, “Bis-3-chloropiperidines: a novel motif for anthelmintic drug design” (RSC Advances, 2025)
